In brackets after ≈: the same amount, converted by molar mass.
What was measured:
[1] = test system: Vancomycin intermediate-resistant Staphylococcus aureus Mu50; experiment: In vitro infectivity assay (MIC), Exp. Ex. 2-1; format: cell-based; settings: Gram-positive, microdilution, MIC after 24 h
Method: (§1) The antibacterial activities were measured based on broth dilution techniques of international standards (Clinical Laboratory Standards Institute: CLSI). The activities were shown by minimum inhibitory concentrations (MICs) determined by inoculating the above-mentioned strains at a concentration of about 10^5 […] into Mueller-Hinton broth (manufactured by Difco) containing 0.85% NaCl in 96-well microplates and incubating the plates at 35° C. for 24 hours. Measurement was carried out three times.
(§2) The antibacterial activities of the compounds of the present invention against various strains such as vancomycin-resistant enterococci (VRE), vancomycin intermediate-resistant Staphylococcus aureus (VISA), methicillin-resistant Staphylococcus aureus (MRSA), and methicillin-sensitive Staphylococcus aureus (MSSA) were examined. Of the bacteria used in MIC measurement in this test example, clinical bacteria of MRSA (OM481 strain and OM584 strain) were supplied from Okayama University Hospital (Japan). An MRSA strain N315, a vancomycin intermediate-resistant Staphylococcus aureus (VISA) strain Mu50, and a methicillin-sensitive Staphylococcus aureus (MSSA) strain FDA 209P were used as controls. Vancomycin-resistant enterococcus (VRE) strains NCTC 12201 and FN-1 were supplied from the National Institute of Infectious Disease (Japan).

[2] = test system: Methicillin-resistant S. aureus COL; experiment: In vitro infectivity assay (MIC), Exp. Ex. 2-1; format: cell-based, Staphylococcus aureus; settings: Gram-positive, microdilution, MIC after 24 h
Method: as §1, §2

[3] = test system: Methicillin-resistant S. aureus OM481; experiment: In vitro infectivity assay (MIC), Exp. Ex. 2-1; format: cell-based, Staphylococcus aureus; settings: Gram-positive, microdilution, MIC after 24 h
Method: as §1, §2

[4] = test system: Methicillin-resistant S. aureus OM584; experiment: In vitro infectivity assay (MIC), Exp. Ex. 2-1; format: cell-based, Staphylococcus aureus; settings: Gram-positive, microdilution, MIC after 24 h
Method: as §1, §2

[5] = test system: Methicillin sensitive S. aureus 209P; experiment: In vitro infectivity assay (MIC), Exp. Ex. 2-1; format: cell-based, Staphylococcus aureus; settings: Gram-positive, microdilution, MIC after 24 h
Method: as §1, §2

[6] = test system: Methicillin-resistant S. aureus N315; experiment: In vitro infectivity assay (MIC), Exp. Ex. 2-1; format: cell-based, Staphylococcus aureus; settings: Gram-positive, microdilution, MIC after 24 h
Method: as §1, §2

[7] = test system: Pseodomonas aeruginosa PAOI; experiment: Antibacterial activity (MIC) against Gram-negative strains, microdilution; format: cell-based; settings: MIC after 24 h
Method: as §1

Escherichia coli K-12 = experiment: as above; format: cell-based; settings: for MIC (Gram-nagative) K-12: MIC after 24 h
Method: as §1

[8] = test system: Vancomycin-resistant enterococci FN-1; experiment: In vitro infectivity assay (MIC), Exp. Ex. 2-1; format: cell-based; settings: Gram-positive; microdilution, MIC after 24 h
Method: as §1, §2

[9] = test system: Vancomycin-resistant enterococci NCTC 12201; experiment: In vitro infectivity assay (MIC), Exp. Ex. 2-1; format: cell-based; settings: Gram-positive; microdilution, MIC after 24 h
Method: as §1, §2

[10] = target: T1, Staphylococcus aureus Topoisomerase IV (Staphylococcus aureus, UniProt P0C1S7+P0C1U9); experiment: Topoisomerase IV inhibition (decatenation kit), Exp. Ex. 2-3; format: biochemical; settings: decatenation of kDNA, 37° C., 30 minutes; read-out: IC50 (S. aureus topoisomerase IV inhibitions)
T1 construct: purchased John Innes Enterprises
Method: (§3) Staphylococcus aureus Topoisomerase IV and Escherichia coli Topoisomerase IV were purchased from John Innes Enterprises. 1 unit of topoisomerase IV was cultured with 200 ng of kinetoplast DNA (kDNA) in 30 L of a reaction solution at 37° C. for 30 minutes under the conditions of 50 mM Tris-HCl (pH 7.5) (S. aureus)/50 mM HEPES-KOH (pH 7.6) (E. coli), 5 mM MgCl2 (S. aureus)/5 mM magnesium acetate (E. coli), 350 mM potassium glutamate (S. aureus)/100 mM potassium glutamate (E. coli), 5 mM dithiotheri (S. aureus)/10 mM dithiotheri (E. coli), 1.5 mM ATP (S. aureus)/1 mM ATP (E. coli), and 40% (w/v) glycerol. The reactions were stopped by adding 8 L of a reaction stop solution (40% sucrose, 100 mM Tris.HCl (pH 7.5), 1 mM EDTA, 0.5 mg/ml bromophenol blue). Agarose gel (1.0%) was poured into TAE (40 mM Tris acetate, 2 mM EDTA).

[11] = target: T2, Escherichia coli Topoisomerase IV (Escherichia coli, UniProt P0AFI2+P20083); experiment: as above; format: biochemical; settings: decatenation of kDNA, 37° C., 30 minutes; read-out: IC50 (E. coli topoisomerase IV inhibitions)
T2 construct: purchased John Innes Enterprises
Method: as §3

E. coli DNA gyrase = target: T3, E. coli DNA gyrase (Escherichia coli, UniProt P0AES4+P0AES6); experiment: DNA gyrase inhibition (supercoiling kit), Exp. Ex. 2-2; format: biochemical; settings: supercoiling activity, 37° C., 30 minutes; read-out: IC50 (E. coli DNA gyrase inhibitions)
T3 construct: purchased John Innes Enterprises #K0001
Method: As a kit for measurement of DNA gyrase of Escherichia coli, a product purchased from John Innes Enterprises (Gyrase Supercoiling assay kit #K0001) was used. Relaxed DNA was modified with gyrase into supercoiled DNA, and reaction products were separated by electrophoresis depending on the sizes of the molecular weights to examine anti-gyrase effects (IC50). 1 unit (1 U) of DNA gyrase and […] of relaxed pBR322 DNA were added to […] of the reaction solution, and the mixture was allowed to react at 37° C. for 30 minutes in the presence of 35 mM Tris-HCl (pH 7.5), 24 mM KCl, 4 mM MgCl2, 2 mM DTT, 1.8 mM spermidine, 1 mM ATP, 6.5% (w/v) glycerol, and 0.1 mg/ml BSA. The reactions were stopped using […] of a reaction stop solution (40% sucrose, 100 mM Tris-HCl (pH 7.5), 1 mM EDTA, 0.5 mg/ml bromophenol blue).

[12] = test system: Streptococcus pneumoniae R6; experiment: In vitro infectivity assay (MIC), Exp. Ex. 2-1; format: cell-based; settings: Gram-positive; microdilution, MIC after 24 h

T3 sequence (P0AES4 whole entry, one chain of several): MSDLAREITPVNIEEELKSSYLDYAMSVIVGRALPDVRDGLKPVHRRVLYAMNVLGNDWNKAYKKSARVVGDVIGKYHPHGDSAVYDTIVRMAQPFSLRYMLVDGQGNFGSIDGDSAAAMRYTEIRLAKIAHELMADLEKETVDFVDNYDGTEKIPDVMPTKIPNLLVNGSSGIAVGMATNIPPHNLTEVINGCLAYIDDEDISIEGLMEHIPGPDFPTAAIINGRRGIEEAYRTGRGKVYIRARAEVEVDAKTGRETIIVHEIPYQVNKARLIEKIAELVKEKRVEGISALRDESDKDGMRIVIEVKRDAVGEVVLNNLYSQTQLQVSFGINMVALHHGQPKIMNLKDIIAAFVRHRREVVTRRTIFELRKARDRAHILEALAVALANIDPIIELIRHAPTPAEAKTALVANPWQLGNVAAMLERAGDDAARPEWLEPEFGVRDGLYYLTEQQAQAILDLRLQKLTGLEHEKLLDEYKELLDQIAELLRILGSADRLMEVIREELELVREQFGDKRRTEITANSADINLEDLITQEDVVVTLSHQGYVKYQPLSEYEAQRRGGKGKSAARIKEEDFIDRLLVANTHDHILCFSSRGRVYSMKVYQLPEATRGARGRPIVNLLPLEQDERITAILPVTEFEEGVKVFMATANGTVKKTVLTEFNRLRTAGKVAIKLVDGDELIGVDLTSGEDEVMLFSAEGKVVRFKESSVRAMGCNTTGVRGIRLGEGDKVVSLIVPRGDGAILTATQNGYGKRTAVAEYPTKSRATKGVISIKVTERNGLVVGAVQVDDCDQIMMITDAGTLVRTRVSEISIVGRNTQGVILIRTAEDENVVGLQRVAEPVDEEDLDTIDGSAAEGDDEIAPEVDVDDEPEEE
T1 sequence (P0C1U9 whole entry): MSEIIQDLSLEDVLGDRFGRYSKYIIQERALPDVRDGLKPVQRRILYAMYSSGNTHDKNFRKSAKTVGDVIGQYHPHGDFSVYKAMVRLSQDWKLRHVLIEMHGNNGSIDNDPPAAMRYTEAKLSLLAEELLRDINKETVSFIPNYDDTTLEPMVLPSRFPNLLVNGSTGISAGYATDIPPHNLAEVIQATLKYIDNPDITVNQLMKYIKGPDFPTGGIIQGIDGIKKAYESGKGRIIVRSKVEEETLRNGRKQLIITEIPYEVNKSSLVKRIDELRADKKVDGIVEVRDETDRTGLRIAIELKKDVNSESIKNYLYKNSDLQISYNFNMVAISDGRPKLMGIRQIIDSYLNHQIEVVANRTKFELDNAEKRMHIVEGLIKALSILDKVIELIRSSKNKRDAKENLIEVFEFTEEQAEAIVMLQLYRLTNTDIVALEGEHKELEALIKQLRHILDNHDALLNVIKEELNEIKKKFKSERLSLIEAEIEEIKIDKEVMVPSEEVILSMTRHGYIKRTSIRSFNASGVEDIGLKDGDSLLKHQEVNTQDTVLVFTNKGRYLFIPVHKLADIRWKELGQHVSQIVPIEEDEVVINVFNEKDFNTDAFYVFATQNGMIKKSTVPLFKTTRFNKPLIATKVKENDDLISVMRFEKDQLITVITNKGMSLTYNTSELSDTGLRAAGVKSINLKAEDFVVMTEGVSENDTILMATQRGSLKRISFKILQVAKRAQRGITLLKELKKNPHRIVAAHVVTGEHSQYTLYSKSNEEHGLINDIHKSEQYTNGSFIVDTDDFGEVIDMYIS
T1 sequence (P0C1S7 whole entry): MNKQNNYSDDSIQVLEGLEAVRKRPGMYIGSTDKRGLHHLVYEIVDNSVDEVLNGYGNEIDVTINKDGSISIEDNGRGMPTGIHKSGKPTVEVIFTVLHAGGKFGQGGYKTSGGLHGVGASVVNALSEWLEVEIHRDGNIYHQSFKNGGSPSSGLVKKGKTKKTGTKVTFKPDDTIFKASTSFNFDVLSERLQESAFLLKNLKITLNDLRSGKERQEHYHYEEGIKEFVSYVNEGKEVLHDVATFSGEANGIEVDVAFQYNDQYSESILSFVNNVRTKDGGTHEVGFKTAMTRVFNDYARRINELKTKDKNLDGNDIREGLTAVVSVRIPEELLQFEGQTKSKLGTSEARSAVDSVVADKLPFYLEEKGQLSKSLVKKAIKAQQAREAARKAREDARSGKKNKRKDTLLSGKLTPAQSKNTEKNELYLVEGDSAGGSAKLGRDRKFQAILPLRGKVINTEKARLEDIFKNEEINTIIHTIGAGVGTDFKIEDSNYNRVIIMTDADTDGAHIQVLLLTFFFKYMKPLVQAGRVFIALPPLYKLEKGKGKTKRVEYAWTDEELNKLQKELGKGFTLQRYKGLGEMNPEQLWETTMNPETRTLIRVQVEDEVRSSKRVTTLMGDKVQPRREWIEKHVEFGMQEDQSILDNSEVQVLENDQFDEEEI
T2 sequence (P20083 whole entry): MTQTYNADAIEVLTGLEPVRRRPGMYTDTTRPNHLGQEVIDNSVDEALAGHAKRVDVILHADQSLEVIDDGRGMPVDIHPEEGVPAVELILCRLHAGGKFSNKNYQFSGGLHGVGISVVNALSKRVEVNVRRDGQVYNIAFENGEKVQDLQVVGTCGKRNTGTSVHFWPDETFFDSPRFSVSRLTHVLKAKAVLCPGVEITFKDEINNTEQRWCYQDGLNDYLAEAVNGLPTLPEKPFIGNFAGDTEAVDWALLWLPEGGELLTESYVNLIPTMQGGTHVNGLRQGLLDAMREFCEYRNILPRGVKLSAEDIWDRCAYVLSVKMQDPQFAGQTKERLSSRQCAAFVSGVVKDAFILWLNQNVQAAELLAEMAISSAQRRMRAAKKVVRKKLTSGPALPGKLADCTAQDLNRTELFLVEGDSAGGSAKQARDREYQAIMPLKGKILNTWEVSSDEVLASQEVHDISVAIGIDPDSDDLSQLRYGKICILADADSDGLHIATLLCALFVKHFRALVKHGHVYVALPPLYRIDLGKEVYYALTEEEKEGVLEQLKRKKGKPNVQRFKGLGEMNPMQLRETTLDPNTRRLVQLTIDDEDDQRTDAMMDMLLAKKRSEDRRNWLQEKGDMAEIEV
T2 sequence (P0AFI2 whole entry): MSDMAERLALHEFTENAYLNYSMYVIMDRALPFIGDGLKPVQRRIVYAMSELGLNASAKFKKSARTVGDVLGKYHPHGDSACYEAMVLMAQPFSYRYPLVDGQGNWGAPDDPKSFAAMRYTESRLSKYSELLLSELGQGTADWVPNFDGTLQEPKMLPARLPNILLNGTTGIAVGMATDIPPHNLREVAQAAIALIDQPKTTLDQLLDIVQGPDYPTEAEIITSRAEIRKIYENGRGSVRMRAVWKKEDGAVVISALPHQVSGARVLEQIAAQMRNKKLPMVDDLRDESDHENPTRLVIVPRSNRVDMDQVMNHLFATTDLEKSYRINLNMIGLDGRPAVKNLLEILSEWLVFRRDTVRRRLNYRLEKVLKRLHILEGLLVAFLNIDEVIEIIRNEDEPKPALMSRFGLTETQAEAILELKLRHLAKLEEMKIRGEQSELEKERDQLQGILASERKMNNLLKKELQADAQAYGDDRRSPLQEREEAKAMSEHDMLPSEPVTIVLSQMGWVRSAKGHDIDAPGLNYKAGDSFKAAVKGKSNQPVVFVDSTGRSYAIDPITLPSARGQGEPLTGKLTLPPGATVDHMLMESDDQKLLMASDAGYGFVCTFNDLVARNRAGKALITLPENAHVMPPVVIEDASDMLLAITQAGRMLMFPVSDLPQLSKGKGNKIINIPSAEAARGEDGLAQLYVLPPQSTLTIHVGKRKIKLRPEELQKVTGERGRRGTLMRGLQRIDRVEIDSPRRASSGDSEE

| SMILES | MIC VRE FN-1 [8] | MIC VRE NCTC 12201 [9] | MIC VISA Mu50 [1] | MIC MRSA COL [2] | MIC MRSA OM481 [3] | MIC MRSA OM584 [4] | MIC MSSA 209P [5] | MIC MRSA N315 [6] | IC50 [10] | IC50 [11] | IC50 (E. coli DNA gyrase) | MIC (Gram-nagative) PAO1 [7] | MIC (Gram-nagative) K-12 (Escherichia coli K-12) | MIC S. Pneumoniae R6 [12] | further results |
| --- | --- | --- | --- | --- | --- | --- | --- | --- | --- | --- | --- | --- | --- | --- | --- |
| CO[C@@H]1[C@@H](OC(N)=O)[C@@H](O)[C@H](Oc2ccc3c(O)c(NC(=O)c4ccc(O)c(CC=C(C)C)c4)c(=O)oc3c2C)OC1(C)C [Novobiocin, novobiocin, reference compound] |  |  |  |  |  |  |  |  |  |  |  |  |  |  | MIC ([1]; Staphylococcus aureus, VISA, read-out: MIC VISA Mu50): 8 µg/mL (≈ 13.1 µM); MIC ([2]; Staphylococcus aureus, MRSA): 0.25 µg/mL (≈ 0.408 µM); MIC ([3]; Staphylococcus aureus, MRSA, read-out: MIC MRSA OM481): 0.25 µg/mL (≈ 0.408 µM); MIC ([4]; Staphylococcus aureus, MRSA, read-out: MIC MRSA OM584): 0.25 µg/mL (≈ 0.408 µM); MIC ([5]; Staphylococcus aureus, 209P / MSSA, read-out: MIC MSSA 209P): 0.125 µg/mL (≈ 0.204 µM); MIC ([6]; Staphylococcus aureus, MRSA, read-out: MIC MRSA N315): 0.125 µg/mL (≈ 0.204 µM); MIC ([7]; read-out: MIC (Gram-nagative) PAO1): 8 µg/mL (≈ 13.1 µM); MIC (Escherichia coli K-12; K12, MIC after 24 h, read-out: MIC (Gram-nagative) K-12): 8 µg/mL (≈ 13.1 µM) |
| CCOc1ccc(CCC(=O)OC[C@H]2O[C@@H](Oc3c(-c4ccc(O)c(O)c4)oc4cc(O)cc(O)c4c3=O)[C@H](OC(=O)CCc3ccc(OCC)cc3)[C@@H](O)[C@H]2O)cc1 [Compound 14g, 2-(3′,4′-Dihydroxyphenyl)-5,7-dihydroxy-3-β-D-{2″,6″-di-O-[3′″-(4-ethoxyphenylpropanoyl)]}galactosyl-4H-chromen-4-one] | 2 µg/mL (≈ 2.45 µM) | 2 µg/mL (≈ 2.45 µM) | 1 µg/mL (≈ 1.22 µM) | 4 µg/mL (≈ 4.9 µM) | 1 µg/mL (≈ 1.22 µM) | 1 µg/mL (≈ 1.22 µM) | 2 µg/mL (≈ 2.45 µM) | 2 µg/mL (≈ 2.45 µM) | 2.99 µM | > 12 µM | 5.39 µM | >128 µg/mL | >128 µg/mL | 8 µg/mL (≈ 9.79 µM) |  |
| CC(=O)OC[C@H]1O[C@@H](Oc2c(-c3ccc(O)c(O)c3)oc3cc(O)cc(O)c3c2=O)[C@H](OC(C)=O)[C@@H](OC(C)=O)[C@H]1OC(C)=O [Compound 12, 2-(3′,4′-Dihydroxyphenyl)-5,7-dihydroxy-3-β-D-tetraacetylgalactosyl-4H-chromen-4-one] | 64 µg/mL (≈ 101 µM) | 64 µg/mL (≈ 101 µM) | 128 µg/mL (≈ 202 µM) | >128 µg/mL | 128 µg/mL (≈ 202 µM) | 128 µg/mL (≈ 202 µM) | 128 µg/mL (≈ 202 µM) | 128 µg/mL (≈ 202 µM) |  |  |  | >128 µg/mL | >128 µg/mL | 128 µg/mL (≈ 202 µM) |  |
| Cc1ccc(CCC(=O)OC[C@H]2O[C@@H](Oc3c(-c4ccc(O)c(O)c4)oc4cc(O)cc(O)c4c3=O)[C@H](OC(=O)CCc3ccc(C)cc3)[C@@H](O)[C@H]2O)cc1 [Compound 14h, 2-(3′,4′-Dihydroxyphenyl)-5,7-dihydroxy-3-β-D-{2″,6″-di-O-[3′″-(4-methylphenylpropanoyl)]}galactosyl-4H-chromen-4-one] | 0.5 µg/mL (≈ 0.661 µM) | 0.5 µg/mL (≈ 0.661 µM) | 0.5 µg/mL (≈ 0.661 µM) | 1 µg/mL (≈ 1.32 µM) | 0.25 µg/mL (≈ 0.33 µM) | 0.25 µg/mL (≈ 0.33 µM) | 0.25 µg/mL (≈ 0.33 µM) | 0.25 µg/mL (≈ 0.33 µM) | 1.49 µM | 7.46 µM | 2.09 µM | >128 µg/mL | >128 µg/mL | 0.25 µg/mL (≈ 0.33 µM) |  |

Source: patent publication US8916526B2, “Flavanone derivative” (National University Corporation Okayama University, priority 2009, dated 2014)
